{"source": "patent US20260229307A1", "about": "“CLEAVED NEOEPITOPES” (IOGENETICS, LLC, priority 2023, published 2026)", "origin": "cited, not measured here", "key": {"[1]": {"settings": "human muscular dystrophy trial"}, "[2]": {"settings": "relative to E64"}}}
{"smiles": "CCOC(=O)[C@H]1O[C@@H]1C(=O)N[C@@H](CC(C)C)C(=O)NCCC(C)C", "note": "[aloxistatin]", "values": [{"measurement": "safety in humans", "setting": "[1]", "result": "demonstrate the safety"}, {"measurement": "cell permeability and adsorption", "setting": "[2]", "result": "improved cell permeability and adsorption"}]}
